Test results: patent US11905537B2, “Bifunction chemical epigenetic modifiers and methods of use” (The University of North Carolina at Chapel Hill, priority 2017, dated 2024)
Several values for one entry are separate records, joined by “and”; a condition that tells them apart may be missing. Equal entries are not always repeated.

Tests used:
Type in all cases: cell-based, human
[1] = tested on: BFP reporter gene downstream of a tre3g promoter; test: BFP reporter activation in HEK 293T cells with dCas9 systems, flow cytometry
From the text: To test for changes in gene expression, human embryonic kidney (HEK) 293T cells were transfected with a BFP reporter gene downstream of a tre3g promoter and performed flow cytometry on at least 100,000 cells after co-expressing the gRNA and dCas9 machinery(Ma, D. et al. Nat. Commun. 7, 13056 (2016)). As a benchmark control for gene activation, a dCas9-p300 fusion protein known to increase expression was used (Hilton, I. B. et al., Nat. Biotechnol. 33, 510-517 (2015)). Using a gRNA that targets the tre3g promoter at six interspaced sites, the dCas9-p300 increased BFP expression 14-fold compared to the non-targeting (NT) control gRNA (FIG. 21A, p<0.05). Next, activating the reporter gene with a plasmid expressing dCas9 (N-terminus)-FKBPx2 (C-terminus) was tested using three predicted activating bifunctional CEMs.
Cell culture: Low passage (p30-40) HEK 293T cells were cultured with high-glucose DMEM (Corning, 10-013-CV) supplemented with 10% FBS serum (Atlantic Biologicals, S11550), 10 mM HEPES (Corning, 25-060-Cl), NEAA (Gibco, 11140-050), Pen/Strep, and 55 μM 2-Mercaptoethanol. Cells were passaged every 2-5 days and maintained at 10-90% confluency in an incubator at 37° C. and 5% CO2.
Cell Transfection: For FIG. 21, HEK 293T cells were split into 12-well plates with 100,000 cells per well. The next day, PEI (polyethlenimine, Polysciences #23966-1) transfection was done with 1 μg of DNA, 3 μL of PEI, and 100 μL of Optimem (Gibco, 31985070). For FIGS. 21A, 21B, 22, and 23 we transfected with 0.1 μg BFP reporter; 0.7 μg dCas9-X; 0.2 μg gRNA. For FIG. 19C, FIG. 19D, FIG. 24, and FIG. 24 we transfected with 0.1 μg BFP reporter; 0.5 μg dCas9-X; 0.2 μg scFv-FKBP or ms2-FKBP; 0.2 μg gRNA. Media was change 16 hours after transfection with fresh media, with or without bifunctional CEMa addition. After 48 hours of bifunctional CEMa exposure, cells were isolated for flow cytometry analysis. For FIG. 23, HEK 293T cells were split into 6-well plates with 200,000 cells per well. The next day, PIE transfection was done with 3 μg of DNA, 9 μL of PEI, and 200 μL of Optimem. For FIGS. 23A-C and 26, 3 μg of gRNA was added in equal ratio (if applicable). Media was change 16 hours after transfection with fresh media, with or without bifunctional CEMa addition. After 48 hours of bifunctional CEMa exposure, cells were isolate for RNA extraction.
Flow cytometry: Flow cytometry was performed with the Attune Nxt as previously described (Chiarella, A. M. et al. Biochemistry 57, 2756-2761 (2018)). The data presented represents three separate transfections and significance was determined with the student's t-test.

MYOD1 = test: Endogenous MYOD1 activation in HEK 293T cells, qRT-PCR; settings: 200 nM, 48 hours
From the text: (§1) Next, the plasmid-optimized dCas9-CEMa system was adapted to target endogenous mammalian genes. Because an endogenous gene was being targeted rather than hundreds of transiently expressing reporter plasmids, the dCas9 machinery (dCas9-p300, dCas9-FKBPx2 and/or MCP-FKBP) was chosen to transfect HEK 293T cells. After the cells were stably selected for integration of the dCas9- and MCP-expressing plasmids, the gRNAs that were designed to target endogenous genes were transfected. To determine the time point at which to observe more efficient dCas9 regulation by this method, cells expressing dCas9-p300 were transfected with gRNAs for myogenic differentiation (MYOD1), the RNA was extracted and qRT-PCR was performed after 24, 48 and 72 hours post transfection. […]
(§2) RNA extraction: For FIGS. 23 and 26, cells from the 6-well plates were isolated. […] RNA extraction was performed with an RNeasy Plus Mini Kit (Qiagen, 74134) and the relative enrichment of mRNA was quantified with the RNA-to-CTr 1-step kit (Thermo Fisher Scientific, 4389986). […]

ASCL1 = test: Endogenous ASCL1 activation in HEK 293T cells, qRT-PCR; settings: 48 hours
From the text: as §1, §2

HEK 293T cells = test: Cell health by cell density and morphology in the dose curve; settings: concentrations of 500 nM and above, data not shown
Method: The dCas9 “SunTag” system was adapted to be compatible with the bifunctional CEMa technology(Tanenbaum, M. E. et al. Cell 159, 635-646 (2014); (Chavez, A. et al. Nat. Methods 13, 563-567 (2016)). Using the improved dCas9-CEMa system (dCas9-FKBPx2, ms2-FKBP, tre3g ×6 gRNA, BFP reporter), the effects of a global epigenetic inhibitor in combination with a gene-specific approach was tested. After the cells were transfected, they were treated with 200 nM of CEM87 and 2.5 μM of Entinostat. BFP expression increased 34-fold compared to unreated cells as measured by flow cytometry. More specifically, A dCas9-SunTagx10 plasmid was used that expresses an array of 10 yeast-specific GCN4 (gene control protein 4) peptides from the C-terminus of the dCas9, and co-transfected with a single chain variable fragment (scFv), (made to be GCN4-specific) fused to FKBP. Theoretically, as many as 10 FKBP molecules per dCas9 would be recruited to the gene of interest, increasing the bifunctional CEMa recruitment power. With the adapted SunTag method and the tre3g ×6 gRNA, 48 hours of 200 nM CEM87 exposure increased expression 16-fold compared to untreated cells (FIG. 24, p<0.001). […] With the improved dCas9 system and the most efficient bifunctional CEMa, CEM87, a dose-curve was performed and the ideal concentration for maximum expression was determined to be 200 nM (FIG. 21D). […]

CXCR4 = test: Endogenous CXCR4 activation in HEK 293T cells, qRT-PCR; settings: 48 hours
From the text: as §1, §2

[2] = dCas9-FKBPx2 (FIG. 21B legend: dCas9-FKBPx1), 200 nM, 48 hours, vs untreated cells
[3] = dCas9-SunTagx10 with scFv-FKBP, tre3g ×6 gRNA, 200 nM, 48 hours, vs untreated

Structure (SMILES)	increase in BFP expression [1, 2]	increase in BFP expression ([1]; dCas9-FKBPx2, ms2-FKBP, tre3g ×6 gRNA, equivalent concentration, vs cells expressing NT gRNA) [fold]	increase in BFP expression [1, 3] [fold]	increase in BFP expression in combination with HDACi ([1]; 200 nM CEM87 plus 2.5 μM entinostat, dCas9-FKBPx2, ms2-FKBP, vs untreated cells) [fold]	increase in BFP expression ([1]; dCas9-FKBPx2, 6×-tre3g gRNA, 200 nM, 48 hours, vs untreated) [fold]	increase in BFP expression ([1]; dCas9-FKBPx2, ms2-FKBP, tre3g ×6 gRNA, 200 nM, vs untreated cells) [fold]	activation of BFP expression ([1]; dCas9-FKBPx2, multiplex gRNA, 200 nM, 48 hours, vs untreated) [fold]	increase in BFP expression ([1]; dCas9-FKBPx2, single site gRNA in gene body, 200 nM, 48 hours, vs untreated) [fold]	effect on BFP expression with dCas9-HA ([1]; dCas9-HA (no FKBP recruitment site), 6×-tre3g gRNA, 200 nM, 48 hours)	activation of BFP expression ([1]; dose curve, 10 nM, dCas9-FKBPx2, ms2-FKBP) [fold]	activation of BFP expression ([1]; dose curve, 50 nM, dCas9-FKBPx2, ms2-FKBP) [fold]	ideal concentration for maximum expression ([1]; dose curve, dCas9-FKBPx2, ms2-FKBP) [nM]	MYOD1 expression change with NT gRNAs (MYOD1; NT gRNA control cells)	increase in MYOD1 mRNA levels (MYOD1; dCas9-FKBPx2 and ms2-FKBP, MYOD1 gRNAs, vs untreated, normalized to Gapdh) [fold]	increase in ASCL1 in NT samples (ASCL1; NT gRNA samples)	increase in ASCL1 mRNA levels (ASCL1; dCas9-FKBPx2 and ms2-FKBP, ASCL1 gRNAs, vs untreated) [fold]	cell health (cell density and morphology) (HEK 293T cells)	change in CXCR4 expression with NT gRNA (CXCR4; NT gRNA control cells)	increase in CXCR4 expression (CXCR4; dCas9-FKBPx2 and ms2-FKBP, CXCR4 gRNAs, vs untreated) [fold]
CO[C@H]1C[C@@H](C)C/C(C)=C/[C@@H](CCCSCCC(=O)NCCOCCOCCOCCn2cc(COc3ccc(CCc4nc5cc(-c6c(C)noc6C)ccc5n4CCN4CCOCC4)cc3F)nn2)C(=O)C[C@H](O)[C@@H](C)[C@@H](/C(C)=C/[C@@H]2CC[C@@H](O)[C@H](OC)C2)OC(=O)[C@@H]2CCCCN2C(=O)C(=O)[C@]2(O)O[C@H]1[C@@H](OC)C[C@H]2C [CEM114]	1.6 fold	6	2																
COc1ccc2c(c1)C(c1ccc(Cl)cc1)=N[C@@H](CC(=O)NCc1cn(CCOCCOCCOCCNC(=O)CCSCCC[C@@H]3/C=C(\C)C[C@H](C)C[C@H](OC)[C@H]4O[C@@](O)(C(=O)C(=O)N5CCCC[C@H]5C(=O)O[C@H](/C(C)=C/[C@@H]5CC[C@@H](O)[C@H](OC)C5)[C@H](C)[C@@H](O)CC3=O)[C@H](C)C[C@@H]4OC)nn1)c1nnc(C)n1-2 [CEM87]	7.5 fold and ~7 fold		16	34	5	18	4	2	did not significantly affect the BFP expression	2	8	200	no significant changes in expression	13	less than 4 fold	22	appeared less healthy	less than 2 fold	10
